The values below come from the NIST ThermoML archive (doi:10.1021/je101130e).

Structures are written as SMILES. Numbers after ± are expanded uncertainties.

A short description of the series: mn = molality of the nth substance listed, in mol/kg. The following applies: 298.15 K, 101 kPa, Liquid, Vibrating tube method.

For orientation: mass density means mass per unit of volume. On to `ClCCl` [dichloromethane] + CCOS(=O)(=O)[O-].CCn1cc[n+](C)c1, for which the mass density (m2 = 0.003931) was found to be 1316.39 ± 10 kg/m3 and the mass density (m2 = 0.1352) came to 1316.68 ± 10 kg/m3.
